{"source": "patent US11292002B2", "about": "“Surfactant additives for digital microfluidic devices for high protein content droplets transport” (THE GOVERNING COUNCIL OF THE UNIVERSITY OF TORONTO, priority 2016, dated 2022)", "target": "BSA (Bos taurus, UniProt P02769)", "sequence (P02769 25-607)": "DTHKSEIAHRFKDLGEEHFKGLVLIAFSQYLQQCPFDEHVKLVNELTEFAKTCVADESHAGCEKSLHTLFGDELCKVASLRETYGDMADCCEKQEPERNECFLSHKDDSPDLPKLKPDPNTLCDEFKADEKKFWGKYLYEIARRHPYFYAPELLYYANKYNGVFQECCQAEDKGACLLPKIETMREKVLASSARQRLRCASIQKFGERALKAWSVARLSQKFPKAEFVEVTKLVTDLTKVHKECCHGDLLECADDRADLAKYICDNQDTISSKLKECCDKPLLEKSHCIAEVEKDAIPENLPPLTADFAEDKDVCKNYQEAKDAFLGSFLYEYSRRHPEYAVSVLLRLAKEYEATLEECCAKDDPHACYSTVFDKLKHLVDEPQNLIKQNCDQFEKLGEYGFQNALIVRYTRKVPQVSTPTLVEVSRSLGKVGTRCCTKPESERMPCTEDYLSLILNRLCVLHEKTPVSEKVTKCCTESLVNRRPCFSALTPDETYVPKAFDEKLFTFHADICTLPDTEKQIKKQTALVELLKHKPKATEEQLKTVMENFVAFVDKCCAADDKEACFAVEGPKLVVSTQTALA", "assay": "Circular dichroism (CD) spectra of BSA with surfactant", "format": "physicochemical, bovine", "conditions": "0.1 g·L^−1 BSA; 1, 2, 2.5, 4, or 6 mM SDS", "excerpt": "Resolution of CD is ±0.1 degree.\nSurfactant-protein complexation is often associated with molecular rearrangement of the protein (i.e., change in protein conformation). […] Protein conformation changes can be probed using circular dichroism (CD) experiments, as illustrated in FIG. 5."}
{"smiles": "CCCCCCCCCCCCOS(=O)(=O)[O-].[Na+]", "note": "[SDS, sodium dodecyl sulfate]", "values": [{"measurement": "CD spectrum of BSA with surfactant compared with BSA alone", "result": "distinctly different CD spectrum"}]}
